Measured values from ChEMBL document CHEMBL1151757, “Synthesis, radiosynthesis, and biological evaluation of fluorine-18-labeled 2beta-carbo(fluoroalkoxy)-3beta-(3'-((Z)-2-haloethenyl)phenyl)nortropanes: candidate radioligands for in vivo imaging of the serotonin transporter with positron emission tomography” (J Med Chem, 2008).

Key:
[1] = Drug uptake in anesthetized cynomolgus monkey brain frontal lobe after 55 mins postinjection; assay type: ADME, organism-based, Macaca fascicularis; details: in vivo
Pons [2] = experiment: Drug uptake in anesthetized cynomolgus monkey brain pons after 115 mins postinjection; assay type: ADME, organism-based, Macaca fascicularis; details: in vivo
Pons [3] = experiment: Drug uptake in anesthetized cynomolgus monkey brain pons after 85 mins postinjection; assay type: ADME, organism-based, Macaca fascicularis; details: in vivo
Putamen [4] = experiment: Drug uptake in anesthetized cynomolgus monkey brain putamen after 65 mins postinjection; assay type: ADME, organism-based, Macaca fascicularis; design: unit not given here; details: in vivo
[5] = Drug uptake in anesthetized cynomolgus monkey brain cerebellum after 1.5 mins postinjection; assay type: ADME, organism-based, Macaca fascicularis; details: in vivo, 0.025 h
[6] = Ratio of drug uptake in frontal lobe to cerebellum in anesthetized cynomolgus monkey after 75 mins postinjection; assay type: ADME, organism-based, Macaca fascicularis; details: in vivo, 1.25 h
[7] = Drug uptake in anesthetized cynomolgus monkey brain frontal lobe after 215 mins postinjection; assay type: ADME, organism-based, Macaca fascicularis; details: in vivo
Thalamus [8] = experiment: Drug uptake in anesthetized cynomolgus monkey brain thalamus after 9.5 mins postinjection; assay type: ADME, organism-based, Macaca fascicularis; design: unit not given here; details: in vivo
[9] = Drug uptake in anesthetized cynomolgus monkey brain frontal lobe after 3.5 mins postinjection; assay type: ADME, organism-based, Macaca fascicularis; details: in vivo
[10] = Ratio of drug uptake in pons to cerebellum in anesthetized cynomolgus monkey after 145 mins postinjection; assay type: ADME, organism-based, Macaca fascicularis; details: in vivo
[11] = Ratio of drug uptake in midbrain to cerebellum in anesthetized cynomolgus monkey after 225 mins postinjection; assay type: ADME, organism-based, Macaca fascicularis; details: in vivo, 3.75 h
[12] = Ratio of drug uptake in midbrain to cerebellum in anesthetized cynomolgus monkey after 95 mins postinjection; assay type: ADME, organism-based, Macaca fascicularis; details: in vivo
[13] = Drug uptake in anesthetized cynomolgus monkey brain cerebellum after 4.5 mins postinjection; assay type: ADME, organism-based, Macaca fascicularis; details: in vivo, 0.075 h
[14] = Drug uptake in anesthetized cynomolgus monkey brain occipital lobe after 145 mins postinjection; assay type: ADME, organism-based, Macaca fascicularis; details: in vivo
[15] = Ratio of drug uptake in caudate to cerebellum in anesthetized cynomolgus monkey after 55 mins postinjection; assay type: ADME, organism-based, Macaca fascicularis; details: in vivo
Thalamus [16] = experiment: Drug uptake in anesthetized cynomolgus monkey brain thalamus after 145 mins postinjection; assay type: ADME, organism-based, Macaca fascicularis; design: unit not given here; details: in vivo
[17] = Ratio of drug uptake in putamen to cerebellum in anesthetized cynomolgus monkey after 215 mins postinjection; assay type: ADME, organism-based, Macaca fascicularis; details: in vivo
Pons [18] = experiment: Drug uptake in anesthetized cynomolgus monkey brain pons after 135 mins postinjection; assay type: ADME, organism-based, Macaca fascicularis; details: in vivo, 2.25 h
[19] = Drug uptake in anesthetized cynomolgus monkey brain frontal lobe after 35 mins postinjection; assay type: ADME, organism-based, Macaca fascicularis; details: in vivo
[20] = Ratio of drug uptake in medulla to cerebellum in anesthetized cynomolgus monkey after 65 mins postinjection; assay type: ADME, organism-based, Macaca fascicularis; details: in vivo
Pons [21] = experiment: Drug uptake in anesthetized cynomolgus monkey brain pons after 165 mins postinjection; assay type: ADME, organism-based, Macaca fascicularis; details: in vivo, 2.75 h
[22] = Ratio of drug uptake in caudate to cerebellum in anesthetized cynomolgus monkey after 12.5 mins postinjection; assay type: ADME, organism-based, Macaca fascicularis; details: in vivo
[23] = Ratio of drug uptake in midbrain to cerebellum in anesthetized cynomolgus monkey after 22.5 mins postinjection; assay type: ADME, organism-based, Macaca fascicularis; details: in vivo, 0.375 h
[24] = Drug uptake in anesthetized cynomolgus monkey brain cerebellum after 95 mins postinjection; assay type: ADME, organism-based, Macaca fascicularis; details: in vivo
Pons [25] = experiment: Drug uptake in anesthetized cynomolgus monkey brain pons after 175 mins postinjection; assay type: ADME, organism-based, Macaca fascicularis; details: in vivo
Caudate [26] = experiment: Drug uptake in anesthetized cynomolgus monkey brain caudate after 155 mins postinjection; assay type: ADME, organism-based, Macaca fascicularis, Caudate nucleus; details: in vivo
[27] = Drug uptake in anesthetized cynomolgus monkey brain occipital lobe after 125 mins postinjection; assay type: ADME, organism-based, Macaca fascicularis; details: in vivo
[28] = Drug uptake in anesthetized cynomolgus monkey brain cerebellum after 235 mins postinjection; assay type: ADME, organism-based, Macaca fascicularis; details: in vivo
Putamen [29] = experiment: Drug uptake in anesthetized cynomolgus monkey brain putamen after 155 mins postinjection; assay type: ADME, organism-based, Macaca fascicularis; details: in vivo
[30] = Ratio of drug uptake in thalamus to cerebellum in anesthetized cynomolgus monkey after 27.5 mins postinjection; assay type: ADME, organism-based, Macaca fascicularis; details: in vivo
[31] = Drug uptake in anesthetized cynomolgus monkey brain frontal lobe after 155 mins postinjection; assay type: ADME, organism-based, Macaca fascicularis; details: in vivo
[32] = Ratio of drug uptake in putamen to cerebellum in anesthetized cynomolgus monkey after 75 mins postinjection; assay type: ADME, organism-based, Macaca fascicularis; details: in vivo, 1.25 h
[33] = Drug uptake in anesthetized cynomolgus monkey brain occipital lobe after 165 mins postinjection; assay type: ADME, organism-based, Macaca fascicularis; details: in vivo, 2.75 h
[34] = Drug uptake in anesthetized cynomolgus monkey brain occipital lobe after 235 mins postinjection; assay type: ADME, organism-based, Macaca fascicularis; details: in vivo
Pons [35] = experiment: Drug uptake in anesthetized cynomolgus monkey brain pons after 9.5 mins postinjection; assay type: ADME, organism-based, Macaca fascicularis; details: in vivo
[36] = Drug uptake in anesthetized cynomolgus monkey brain frontal lobe after 4.5 mins postinjection; assay type: ADME, organism-based, Macaca fascicularis; details: in vivo, 0.075 h
Pons [37] = experiment: Drug uptake in anesthetized cynomolgus monkey brain pons after 4.5 mins postinjection; assay type: ADME, organism-based, Macaca fascicularis; details: in vivo, 0.075 h
Caudate [38] = experiment: Drug uptake in anesthetized cynomolgus monkey brain caudate after 165 mins postinjection; assay type: ADME, organism-based, Macaca fascicularis, Caudate nucleus; details: in vivo, 2.75 h
[39] = Drug uptake in anesthetized cynomolgus monkey brain frontal lobe after 6.5 mins postinjection; assay type: ADME, organism-based, Macaca fascicularis; details: in vivo
[40] = Ratio of drug uptake in pons to cerebellum in anesthetized cynomolgus monkey after 225 mins postinjection; assay type: ADME, organism-based, Macaca fascicularis; details: in vivo, 3.75 h
Medulla [41] = experiment: Drug uptake in anesthetized cynomolgus monkey brain medulla after 22.5 mins postinjection; assay type: ADME, organism-based, Macaca fascicularis; details: in vivo, 0.375 h
[42] = Drug uptake in anesthetized cynomolgus monkey brain occipital lobe after 175 mins postinjection; assay type: ADME, organism-based, Macaca fascicularis; details: in vivo
Medulla [43] = experiment: Drug uptake in anesthetized cynomolgus monkey brain medulla after 115 mins postinjection; assay type: ADME, organism-based, Macaca fascicularis; details: in vivo
Putamen [44] = experiment: Drug uptake in anesthetized cynomolgus monkey brain putamen after 75 mins postinjection; assay type: ADME, organism-based, Macaca fascicularis; design: unit not given here; details: in vivo, 1.25 h
[45] = Drug uptake in anesthetized cynomolgus monkey brain occipital lobe after 215 mins postinjection; assay type: ADME, organism-based, Macaca fascicularis; details: in vivo
[46] = Drug uptake in anesthetized cynomolgus monkey brain occipital lobe after 15.5 mins postinjection; assay type: ADME, organism-based, Macaca fascicularis; details: in vivo
[47] = Ratio of drug uptake in frontal lobe to cerebellum in anesthetized cynomolgus monkey after 95 mins postinjection; assay type: ADME, organism-based, Macaca fascicularis; details: in vivo
Thalamus [48] = experiment: Drug uptake in anesthetized cynomolgus monkey brain thalamus after 0.5 mins postinjection; assay type: ADME, organism-based, Macaca fascicularis; details: in vivo
Medulla [49] = experiment: Drug uptake in anesthetized cynomolgus monkey brain medulla after 6.5 mins postinjection; assay type: ADME, organism-based, Macaca fascicularis; details: in vivo
[50] = Drug uptake in anesthetized cynomolgus monkey brain cerebellum after 165 mins postinjection; assay type: ADME, organism-based, Macaca fascicularis; details: in vivo, 2.75 h
Putamen [51] = experiment: Drug uptake in anesthetized cynomolgus monkey brain putamen after 18.5 mins postinjection; assay type: ADME, organism-based, Macaca fascicularis; design: unit not given here; details: in vivo
Caudate [52] = experiment: Drug uptake in anesthetized cynomolgus monkey brain caudate after 3.5 mins postinjection; assay type: ADME, organism-based, Macaca fascicularis, Caudate nucleus; details: in vivo
[53] = Drug uptake in anesthetized cynomolgus monkey brain cerebellum after 12.5 mins postinjection; assay type: ADME, organism-based, Macaca fascicularis; details: in vivo
Thalamus [54] = experiment: Drug uptake in anesthetized cynomolgus monkey brain thalamus after 18.5 mins postinjection; assay type: ADME, organism-based, Macaca fascicularis; design: unit not given here; details: in vivo
Thalamus [55] = experiment: Drug uptake in anesthetized cynomolgus monkey brain thalamus after 65 mins postinjection; assay type: ADME, organism-based, Macaca fascicularis; design: unit not given here; details: in vivo
Caudate [56] = experiment: Drug uptake in anesthetized cynomolgus monkey brain caudate after 27.5 mins postinjection; assay type: ADME, organism-based, Macaca fascicularis, Caudate nucleus; details: in vivo
Midbrain = experiment: Drug uptake in anesthetized cynomolgus monkey brain midbrain after 145 mins postinjection; assay type: ADME, organism-based, Macaca fascicularis; details: in vivo
Putamen [57] = experiment: Drug uptake in anesthetized cynomolgus monkey brain putamen after 1.5 mins postinjection; assay type: ADME, organism-based, Macaca fascicularis; details: in vivo, 0.025 h
[58] = Drug uptake in anesthetized cynomolgus monkey brain cerebellum after 0.5 mins postinjection; assay type: ADME, organism-based, Macaca fascicularis; details: in vivo
[59] = Drug uptake in anesthetized cynomolgus monkey brain occipital lobe after 1.5 mins postinjection; assay type: ADME, organism-based, Macaca fascicularis; details: in vivo, 0.025 h

**Q.** With `O=C(OCCC[18F])C1C2CCC(CC1c1cccc(/C=C\Br)c1)N2` (stereo not given) as the compound, how does the Drug uptake [1] read?
**A.** 3.67

**Q.** And the Drug uptake (Pons [2])?
**A.** 4.2

**Q.** And the Drug uptake (Pons [3])?
**A.** 4.59

**Q.** And the Drug uptake (Putamen [4])?
**A.** 5.78

**Q.** And the Drug uptake [5]?
**A.** 0.48

**Q.** What about the Ratio [6] of the same compound?
**A.** 0.9

**Q.** And the Drug uptake [7]?
**A.** 2.03

**Q.** And the Drug uptake (Thalamus [8])?
**A.** 4.02

**Q.** What about the Drug uptake [9] of the same compound?
**A.** 1.47

**Q.** And the Ratio [10]?
**A.** 1.6

**Q.** What about the Ratio [11] of the same compound?
**A.** 2.1

**Q.** What about the Ratio [12] of the same compound?
**A.** 1.5

**Q.** And the Drug uptake [13]?
**A.** 3.51

**Q.** What about the Drug uptake [14] of the same compound?
**A.** 3.5

**Q.** And the Ratio [15]?
**A.** 1.1

**Q.** What about the Drug uptake (Thalamus [16]) of the same compound?
**A.** 4.62

**Q.** What about the Ratio [17] of the same compound?
**A.** 1.7

**Q.** What about the Drug uptake (Pons [18]) of the same compound?
**A.** 4.03

**Q.** And the Drug uptake [19]?
**A.** 3.74

**Q.** And the Ratio [20]?
**A.** 1.3

**Q.** And the Drug uptake (Pons [21])?
**A.** 3.84

**Q.** What about the Ratio [22] of the same compound?
**A.** 0.7

**Q.** And the Ratio [23]?
**A.** 1

**Q.** What about the Drug uptake [24] of the same compound?
**A.** 3.81

**Q.** And the Drug uptake (Pons [25])?
**A.** 3.78

**Q.** What about the Drug uptake (Caudate [26]) of the same compound?
**A.** 4.18

**Q.** What about the Drug uptake [27] of the same compound?
**A.** 3.64

**Q.** And the Drug uptake [28]?
**A.** 1.87

**Q.** What about the Drug uptake (Putamen [29]) of the same compound?
**A.** 4.38

**Q.** What about the Ratio [30] of the same compound?
**A.** 0.9

**Q.** What about the Drug uptake [31] of the same compound?
**A.** 2.65

**Q.** What about the Ratio [32] of the same compound?
**A.** 1.4

**Q.** What about the Drug uptake [33] of the same compound?
**A.** 3.22

**Q.** And the Drug uptake [34]?
**A.** 2.53

**Q.** And the Drug uptake (Pons [35])?
**A.** 4.14

**Q.** And the Drug uptake [36]?
**A.** 1.85

**Q.** And the Drug uptake (Pons [37])?
**A.** 2.44

**Q.** And the Drug uptake (Caudate [38])?
**A.** 4.01

**Q.** What about the Drug uptake [39] of the same compound?
**A.** 2.95

**Q.** And the Ratio [40]?
**A.** 1.6

**Q.** What about the Drug uptake (Medulla [41]) of the same compound?
**A.** 6.29

**Q.** What about the Drug uptake [42] of the same compound?
**A.** 3.06

**Q.** What about the Drug uptake (Medulla [43]) of the same compound?
**A.** 5.07

**Q.** What about the Drug uptake (Putamen [44]) of the same compound?
**A.** 5.63

**Q.** And the Drug uptake [45]?
**A.** 2.7

**Q.** What about the Drug uptake [46] of the same compound?
**A.** 4.29

**Q.** What about the Ratio [47] of the same compound?
**A.** 0.9

**Q.** And the Drug uptake (Thalamus [48])?
**A.** 0.01

**Q.** What about the Drug uptake (Medulla [49]) of the same compound?
**A.** 5.26

**Q.** And the Drug uptake [50]?
**A.** 2.57

**Q.** And the Drug uptake (Putamen [51])?
**A.** 5.83

**Q.** What about the Drug uptake (Caudate [52]) of the same compound?
**A.** 1.7

**Q.** What about the Drug uptake [53] of the same compound?
**A.** 5.72

**Q.** And the Drug uptake (Thalamus [54])?
**A.** 4.77

**Q.** What about the Drug uptake (Thalamus [55]) of the same compound?
**A.** 5.39

**Q.** And the Drug uptake (Caudate [56])?
**A.** 4.94

**Q.** What about the Drug uptake (Midbrain) of the same compound?
**A.** 5.18

**Q.** And the Drug uptake (Putamen [57])?
**A.** 0.3

**Q.** And the Drug uptake [58]?
**A.** 0.01

**Q.** And the Drug uptake [59]?
**A.** 0.3
